Results as given in patent publication US20100104644A1, “Compositions and Methods for Treating or Preventing Ophthalmic Disease” (University of Florida Research Foundation, Inc., priority 2006, published 2010).
Entries after “also recorded” stand apart in the source; their conditions may differ.

How the values were obtained:
[1] = tested on: purified wt (wild-type) opsin; assay: 500 nm absorbing pigment formation on addition of compound alone to purified opsin; format: biochemical; conditions: compound added to purified WT opsin without 11-cis-retinal
[2] = tested on: purified wild-type (WT) opsin; assay: Opsin regeneration: pigment formation of purified WT opsin with 11-cis-retinal in the presence of compound; format: biochemical; conditions: for inhibition of pigment formation / binding of 11-cis-retinal to opsin: in vitro
[3] = tested on: P23H opsin; assay: P23H yield in stable cells expressing opsin treated with compound; format: cell-based
Description: Stable cell lines expressing opsin protein were generated using the Flp-In T-Rex system. The stable cells were grown in DMEM high glucose media supplemented with 10% (v/v) fetal bovine serum, antibiotic/antimycotic solution, […] blasticidin and hygromycin at 37° C. in presence of 5% CO2. For all the experiments the cells were allowed to reach confluence and were induced to produce opsin with 1 μg/ml tetracycline after change of media and then compounds were added. The plates were incubated for 48 hours after which the cells were harvested.
Proteins were separated on SDS-PAGE gels and western blotted as described in Noorwez et al. (2004).

| Compound | % Increase in P23H Yield ([3]; Table 1) | % Increase in P23H Yield ([3]; Table 2, with spread) | other results |
| --- | --- | --- | --- |
| CC(=O)c1c(C)n[nH]c1C [Compound 1, 1-(3,5-dimethyl-1H-pyrazol-4-yl)ethanone] | 31% | 30 ± 5% | formation of 500 nm absorbing pigment by the compound with opsin ([1]; listed as SN10011): No pigment was formed; also recorded: no 500 nm absorbing pigment was generated; inhibition of pigment formation of WT opsin with 11-cis-retinal ([2]; 2 mM and 5 mM concentrations): inhibited; inhibition of pigment formation / binding of 11-cis-retinal to opsin ([2]; listed as SN 10011): inhibits the binding of 11-cis-retinal to opsin in vitro; inhibition of pigment formation / binding of 11-cis-retinal to opsin ([2]; listed as SN10011): reversibly inhibits binding of 11-cis-retinal; also recorded: significant effect on inhibition of pigment formation |
| N#Cc1cn(Cc2ccco2)c(=O)[nH]c1=O [Compound 2, 1-furan-2-ylmethyl-2,4-dioxo-1,2,3,4-tetrahydro-pyrimidine-5-carbonitrile] | 43% | 40 ± 7% |  |
| O=[PH](O)c1ccccc1 [Compound 3, phenyl-phosphinic acid] | 32% | 40 ± 3% |  |
| Cc1cc([N+](=O)[O-])ccn1 [Compound 4, 2-methyl-4-nitro-pyridine] | 24% | 25 ± 8% |  |
| O=C1NC(CCO)C(=O)NC1CCO (stereo not shown) [Compound 5, 3,6-bis-(2-hydroxyethy)-piperazine-2,5-dione] | 15% | 30 ± 10% |  |
| CC(C)N(CC#N)C(C)C [Compound 6, diisopropylaminoacetonitrile] | 28% | 25 ± 3% |  |
| N#Cc1ccc2c(c1)OCO2 [Compound 27009, 3,4-Methylenedioxybenzonitrile] |  | 20 ± 5% |  |
| Cn1cc(C(N)=O)ccc1=N [Compound 66688, 6-imino-1-methyl-1,6-dihydro-3-pyridinecarboxamine] |  | 40 ± 9% |  |
| Nn1nnc2ccccc21 [Compound 114498, 1H-1,2,3-benzotriazol-1-amine] |  | 30 ± 6% |  |
| Oc1ccccc1C=Nn1cnnc1 [Compound 121968, 4-Salicylideneamino-1,2,4-triazol] |  | 29 ± 5% |  |
| CC(=O)/C=C/C1=C(C)CCCC1(C)C [β-ionone, reference compound] |  |  | formation of 500 nm absorbing pigment by the compound with opsin [1]: does not form a light absorbing pigment with opsin; also recorded: does not itself form a 500 nm absorbing pigment with opsin; also recorded: no 500 nm absorbing pigment was formed; inhibition of pigment formation / binding of 11-cis-retinal to opsin [2]: inhibit binding of retinal to the site; also recorded: inhibited opsin regeneration in a dose dependent manner |
